Assay results from patent publication US9999656B2, “Treatment of short bowel syndrome patients with colon-in-continuity” (Shire-NPS Pharmaceuticals, Inc., priority 2004, dated 2018).

Columns and labels:
[1] = tested on: patients with short bowel syndrome (SBS); assay: 72-hour nutrient balance studies in open-label pilot study of teduglutide; format: in vivo, human; conditions: for Energy Absorption (% of intake), Effect of Treatment (Treatment minus Baseline) mean ± SD / Energy Absorption, Effect of Treatment (Treatment minus Baseline) mean ± SD / Energy Fecal, Effect of Treatment (Treatment minus Baseline) mean ± SD / Urine Wet Weight, Effect of Treatment (Treatment minus Baseline) mean ± SD / Wet Weight Absorption (% of intake), Effect of Treatment (Treatment minus Baseline) mean ± SD / Wet Weight Absorption, Effect of Treatment (Treatment minus Baseline) mean ± SD / Wet Weight Fecal, Effect of Treatment (Treatment minus Baseline) mean ± SD: Days 18-21 vs baseline; for Energy Absorption (% of intake), Effect at Follow up (Follow up minus Baseline) mean ± SD / Energy Absorption, Effect at Follow up (Follow up minus Baseline) mean ± SD / Energy Fecal, Effect at Follow up (Follow up minus Baseline) mean ± SD / Urine Wet Weight, Effect at Follow up (Follow up minus Baseline) mean ± SD / Wet Weight Absorption (% of intake), Effect at Follow up (Follow up minus Baseline) mean ± SD / Wet Weight Absorption, Effect at Follow up (Follow up minus Baseline) mean ± SD / Wet Weight Fecal, Effect at Follow up (Follow up minus Baseline) mean ± SD: follow-up Days 39-42 vs baseline; for decrease in fecal wet weight compared to baseline: 21-day treatment, stated as decrease; for decrease in fecal energy excretion compared to baseline: stated as reduction
Procedure: This was an open-label, pilot study to determine the safety and effect of teduglutide in patients with short bowel syndrome (SBS). The patient's history was reviewed and a physical examination performed to determine eligibility before inclusion in the study. Estimated residual small intestine and colon lengths were determined by reviewing operative reports and available radiographic studies. Eligible patients were admitted as inpatients to hospital wards or General Clinic Research Centers (GCRC) on three separate occasions, 18 days apart, for the last four days and three nights of the baseline period and at the end of the treatment and follow-up periods. Treatment consisted of recombinant teduglutide (supplied by NPS Allelix, Mississauga, ON, Canada) formulated as a lyophilized powder with L-histidine, mannitol, and monobasic and dibasic sodium phosphate (Lot 8502901). Water was added to reconstitute the drug for administration by subcutaneous (s.c.) injections in the abdomen or thigh. Ten SBS patients with jejunostomy received 0.03 mg/kg/d, 0.10 mg/kg/d or 0.15 mg/kg/d once daily for 21 days. Five SBS patients with ≥50% colon-in-continuity received teduglutide 0.10 mg/kg/d once daily for 21 days.
The 72-hour nutrient balance studies were completed with each patient eating their usual diet, calculated from a seven-day food diary completed by the patient during the screening period. It was intended that patients eat the same quantity and quality of food and beverages during each admission. During the 72-hour balance periods, all oral intake (duplicate meals and beverages and declined food), fecal/stomal output, and urine were collected and weighed. All stool samples were refrigerated during the collection period. Stools and diets were separately homogenized and analyzed for energy content (by bomb calorimetry), nitrogen (by the macro-Kjeldahl's method), fat (by the gravimetric technique), and sodium and potassium (by atomic absorption).
Using the SAS (Version 8.2; SAS Institute, Cary, N.C.) statistical program, a Student's paired t test was employed that compared treatment to baseline values, and follow-up to baseline values. No comparisons were made between patients on different doses or with different anatomy due to the limited number of patients in the study. Data are expressed as mean±SD. A value of p<0.05 was considered significant.

[2] = Half-life / AUC (pharmacokinetics); format: in vivo
Procedure: This greater effect could be related to differences in dose and half-life of GLP-2 and teduglutide, respectively. In the pilot study with native GLP-2, 400 μg was given twice daily (corresponding to 0.013±0.002 mg/kg/day, a range of 0.011-0.017 mg/kg/day). The teduglutide doses in the current study were 3-10 times higher, ranging from 0.03 to 0.15 mg/kg/day. […] If area under the curve (AUC) is critical for the wet weight absorption effect, the AUC during teduglutide treatment may well be 200 times greater than the AUC when using native GLP-2. In this study, effects of teduglutide on energy and macronutrient absorption were minor compared to effects on wet weight absorption. […] Nonetheless, the effect of teduglutide on absolute energy absorption is 1.5 to 4-fold higher than with native GLP-2 (441±634 kJ/day ([105±151 kcal/day] p=0.09) at the given doses and treatment periods. Thus, in contrast to H2-receptor antagonists, proton-pump inhibitors and octreotide that only affect wet weight absorption, native GLP-2 and teduglutide seem to affect both intestinal wet weight and energy absorption, with an additional positive effect on wet weight absorption in patients already treated with these non-GLP-2 agonists.

[3] = Body weight following teduglutide treatment; format: in vivo, human; conditions: not significant (p=0.120)
[4] = Group 2 SBS end-jejunostomy, N=10, 0.03-0.15 mg/kg/d s.c. once daily 21 days
[5] = Group 2 SBS end-jejunostomy, N=10
[6] = Group 2 SBS end-jejunostomy, of N=10
[7] = Group 3 SBS ≥50% colon-in-continuity, N=5, 0.10 mg/kg/d s.c. once daily 21 days
[8] = Group 3 SBS ≥50% colon-in-continuity, N=5
[9] = Group 3 SBS ≥50% colon-in-continuity, of N=5
[10] = Group 4 SBS high dietary compliance, N=10, 21 days
[11] = Group 4 SBS high dietary compliance, N=10
[12] = Group 4 SBS high dietary compliance, of N=10

CC[C@H](C)[C@H](NC(=O)[C@H](Cc1ccccc1)NC(=O)[C@H](CC(=O)O)NC(=O)[C@H](CCCNC(=N)N)NC(=O)[C@H](C)NC(=O)[C@H](C)NC(=O)[C@H](CC(C)C)NC(=O)[C@H](CC(N)=O)NC(=O)[C@H](CC(=O)O)NC(=O)[C@H](CC(C)C)NC(=O)[C@@H](NC(=O)[C@@H](NC(=O)[C@H](CC(N)=O)NC(=O)[C@H](CCSC)NC(=O)[C@H](CCC(=O)O)NC(=O)[C@H](CC(=O)O)NC(=O)[C@H](CO)NC(=O)[C@H](Cc1ccccc1)NC(=O)[C@H](CO)NC(=O)CNC(=O)[C@H](CC(=O)O)NC(=O)CNC(=O)[C@@H](N)Cc1c[nH]cn1)[C@@H](C)O)[C@@H](C)CC)C(=O)N[C@@H](CC(N)=O)C(=O)N[C@@H](Cc1c[nH]c2ccccc12)C(=O)N[C@@H](CC(C)C)C(=O)N[C@H](C(=O)N[C@@H](CCC(N)=O)C(=O)N[C@H](C(=O)N[C@@H](CCCCN)C(=O)N[C@H](C(=O)N[C@H](C(=O)N[C@@H](CC(=O)O)C(=O)O)[C@@H](C)O)[C@@H](C)CC)[C@@H](C)O)[C@@H](C)CC [teduglutide, [Gly2]hGLP-2]
Energy Absorption (% of intake), Effect of Treatment (Treatment minus Baseline) mean ± SD [1, 4]: 5 ± 20 % of intake
Energy Absorption, Effect of Treatment (Treatment minus Baseline) mean ± SD [1, 4]: 363 ± 2656 kJ/day
Energy Fecal, Effect of Treatment (Treatment minus Baseline) mean ± SD [1, 4]: -532 ± 1703 kJ/day
Urine Wet Weight, Effect of Treatment (Treatment minus Baseline) mean ± SD [1, 4]: 680 ± 535 g/day
Wet Weight Absorption (% of intake), Effect of Treatment (Treatment minus Baseline) mean ± SD [1, 4]: 20±18 % of intake
Wet Weight Absorption, Effect of Treatment (Treatment minus Baseline) mean ± SD [1, 4]: 788 ± 551 g/day
Wet Weight Fecal, Effect of Treatment (Treatment minus Baseline) mean ± SD [1, 4]: -682 ± 911 g/day
Energy Absorption (% of intake), Effect at Follow up (Follow up minus Baseline) mean ± SD [1, 5]: −6 ± 12 % of intake
Energy Absorption, Effect at Follow up (Follow up minus Baseline) mean ± SD [1, 5]: -800 ± 2958 kJ/day
Energy Fecal, Effect at Follow up (Follow up minus Baseline) mean ± SD [1, 5]: 320 ± 1200 kJ/day
Urine Wet Weight, Effect at Follow up (Follow up minus Baseline) mean ± SD [1, 5]: 11 ± 287 g/day
Wet Weight Absorption (% of intake), Effect at Follow up (Follow up minus Baseline) mean ± SD [1, 5]: −9 ± 16 % of intake
Wet Weight Absorption, Effect at Follow up (Follow up minus Baseline) mean ± SD [1, 5]: -218 ± 577 g/day
Wet Weight Fecal, Effect at Follow up (Follow up minus Baseline) mean ± SD [1, 5]: 278 ± 496 g/day
Energy Absorption (% of intake), Patients With Beneficial Effect [1, 6]: 6
Energy Absorption (kJ/day), Patients With Beneficial Effect [1, 6]: 6
Energy Fecal, Patients With Beneficial Effect [1, 6]: 8
Urine Wet Weight, Patients With Beneficial Effect [1, 6]: 8
Wet Weight Absorption (% of intake), Patients With Beneficial Effect [1, 6]: 8
Wet Weight Absorption (g/day), Patients With Beneficial Effect [1, 6]: 9
Wet Weight Fecal, Patients With Beneficial Effect [1, 6]: 8
decrease in fecal wet weight compared to baseline ([1]; Group 2 SBS end-jejunostomy): 682 ± 911 g/day
decrease in fecal energy excretion compared to baseline ([1]; Group 2 SBS end-jejunostomy, p>0.05): 532 ± 1703 kJ/day
decrease in fecal energy excretion compared to baseline ([1]; Group 3 SBS colon-in-continuity): 1343 ± 916 kJ/day
Energy Absorption (% of intake), Effect of Treatment (Treatment minus Baseline) mean ± SD [1, 7]: 10±7 % of intake
Energy Absorption, Effect of Treatment (Treatment minus Baseline) mean ± SD [1, 7]: 1027 ± 798 kJ/day
Energy Fecal, Effect of Treatment (Treatment minus Baseline) mean ± SD [1, 7]: -1343 ± 916 kJ/day
Urine Wet Weight, Effect of Treatment (Treatment minus Baseline) mean ± SD [1, 7]: 461 ± 200 g/day
Wet Weight Absorption (% of intake), Effect of Treatment (Treatment minus Baseline) mean ± SD [1, 7]: 26±16 % of intake
Wet Weight Absorption, Effect of Treatment (Treatment minus Baseline) mean ± SD [1, 7]: 751 ± 328 g/day
Wet Weight Fecal, Effect of Treatment (Treatment minus Baseline) mean ± SD [1, 7]: -822 ± 341 g/day
Energy Absorption (% of intake), Effect at Follow up (Follow up minus Baseline) mean ± SD [1, 8]: 10 ± 17 % of intake
Energy Absorption, Effect at Follow up (Follow up minus Baseline) mean ± SD [1, 8]: 907 ± 1146 kJ/day
Energy Fecal, Effect at Follow up (Follow up minus Baseline) mean ± SD [1, 8]: -997 ± 1713 kJ/day
Urine Wet Weight, Effect at Follow up (Follow up minus Baseline) mean ± SD [1, 8]: -90 ± 281 g/day
Wet Weight Absorption (% of intake), Effect at Follow up (Follow up minus Baseline) mean ± SD [1, 8]: 17 ± 30 % of intake
Wet Weight Absorption, Effect at Follow up (Follow up minus Baseline) mean ± SD [1, 8]: 352 ± 525 g/day
Wet Weight Fecal, Effect at Follow up (Follow up minus Baseline) mean ± SD [1, 8]: -240 ± 426 g/day
Energy Absorption (% of intake), Patients With Beneficial Effect [1, 9]: 5
Energy Absorption (kJ/day), Patients With Beneficial Effect [1, 9]: 5
Energy Fecal, Patients With Beneficial Effect [1, 9]: 4
Urine Wet Weight, Patients With Beneficial Effect [1, 9]: 5
Wet Weight Absorption (% of intake), Patients With Beneficial Effect [1, 9]: 5
Wet Weight Absorption (g/day), Patients With Beneficial Effect [1, 9]: 5
Wet Weight Fecal, Patients With Beneficial Effect [1, 9]: 5
decrease in fecal wet weight compared to baseline ([1]; Group 3 SBS ≥50% colon-in-continuity): 822 ± 341 g/day
Energy Absorption (% of intake), Effect of Treatment (Treatment minus Baseline) mean ± SD [1, 10]: 8±11 % of intake
Energy Absorption, Effect of Treatment (Treatment minus Baseline) mean ± SD [1, 10]: 963 ± 1290 kJ/day
Energy Fecal, Effect of Treatment (Treatment minus Baseline) mean ± SD [1, 10]: -1060 ± 1083 kJ/day
Urine Wet Weight, Effect of Treatment (Treatment minus Baseline) mean ± SD [1, 10]: 725 ± 394 g/day
Wet Weight Absorption (% of intake), Effect of Treatment (Treatment minus Baseline) mean ± SD [1, 10]: 23 ± 16 % of intake
Wet Weight Absorption, Effect of Treatment (Treatment minus Baseline) mean ± SD [1, 10]: 746 ± 436 g/day
Wet Weight Fecal, Effect of Treatment (Treatment minus Baseline) mean ± SD [1, 10]: -769 ± 447 g/day
Energy Absorption (% of intake), Effect at Follow up (Follow up minus Baseline) mean ± SD [1, 11]: 3 ± 16 % of intake
Energy Absorption, Effect at Follow up (Follow up minus Baseline) mean ± SD [1, 11]: 452 ± 1211 kJ/day
Energy Fecal, Effect at Follow up (Follow up minus Baseline) mean ± SD [1, 11]: -98 ± 1674 kJ/day
Urine Wet Weight, Effect at Follow up (Follow up minus Baseline) mean ± SD [1, 11]: 30 ± 285 g/day
Wet Weight Absorption (% of intake), Effect at Follow up (Follow up minus Baseline) mean ± SD [1, 11]: 0 ± 27 % of intake
Wet Weight Absorption, Effect at Follow up (Follow up minus Baseline) mean ± SD [1, 11]: 24 ± 576 g/day
Wet Weight Fecal, Effect at Follow up (Follow up minus Baseline) mean ± SD [1, 11]: 93 ± 500 g/day
Energy Absorption (% of intake), Patients With Beneficial Effect [1, 12]: 9
Energy Absorption (kJ/day), Patients With Beneficial Effect [1, 12]: 9
Energy Fecal, Patients With Beneficial Effect [1, 12]: 8
Urine Wet Weight, Patients With Beneficial Effect [1, 12]: 10
Wet Weight Absorption (% of intake), Patients With Beneficial Effect [1, 12]: 9
Wet Weight Absorption (g/day), Patients With Beneficial Effect [1, 12]: 9
Wet Weight Fecal, Patients With Beneficial Effect [1, 12]: 9
decrease in fecal energy excretion compared to baseline ([1]; Group 4 SBS high dietary compliance): 1060 ± 1083 kJ/day
improved wet weight absorption ([1]; SBS patient population): 0.75 L
effect on absolute energy absorption relative to native GLP-2 ([1]; at the given doses and treatment periods): 1.5 to 4 fold
reversal of changes at follow-up ([1]; follow-up after cessation of dosing): Most changes in intestinal absorption and histology related to teduglutide treatment had reversed at follow-up
effects on wet weight absorption relative to native GLP-2 pilot study ([1]; in vivo): almost two-fold
number of SBS patients in whom absolute wet weight absorption increased as a percent of intake ([1]; of 15 SBS patients): 13
number of SBS patients with decreases in energy excretion ([1]; of 15 SBS patients): 12
number of SBS patients with increased absolute wet weight absorption compared to baseline ([1]; of 15 SBS patients): 15
number of SBS patients with increased urine weight ([1]; of 15 SBS patients): 13
AUC during teduglutide treatment relative to AUC using native GLP-2 ([2]; 'may well be', estimate): ~200 times
half-life ([2]; human, plasma, teduglutide, approximately): 0.9 to 2.3 h
increase in body weight following teduglutide treatment [3]: 0.9 ± 2.1 kg
